≈ marks a conversion by molar mass, not a printed value. Each block holds one compound with its values, some of them ahead of it.
What was measured:
[1] = tested on: Staphylococcus aureus MRQR; test: MIC, standard in-vitro test, agar dilution; type: cell-based; settings: Staphylococcus aureus MRQR (methicillin resistant and quinolone resistant), 10^4 CFU/spot, 37° C., 24 hours
Protocol: (§1) The following results were obtained on a standard in-vitro test system The activity is described in terms of the minimum inhibitory concentration (MIC) determined by the agar-dilution technique with an inoculum size of 10^4 CFU/spot. Typically, compounds are active in the range 0.01 to 256 μg/ml.
(§2) Staphylococci were tested on agar, using an inoculum of 10^4 CFU/spot and an incubation temperature of 37° C. for 24 hours—standard test conditions for the expression of methicillin resistance.

[2] = tested on: Staphylococcus aureus MSQS; test: MIC, standard in-vitro test, agar dilution; type: cell-based; settings: Staphylococcus aureus MSQS (methicillin sensitive and quinolone sensitive), 10^4 CFU/spot, 37° C., 24 hours
Protocol: as §1, §2

Enterococcus faecium = test: MIC, standard in-vitro test, agar with 5% horse blood; type: cell-based; settings: agar with 5% defibrinated horse blood, 48 hours
Protocol: as §1
(§3) Streptococci and enterococci were tested on agar supplemented with 5% defibrinated horse blood, an inoculum of 10^4 CFU/spot and an incubation temperature of 37° C. in an atmosphere of 5% carbon dioxide for 48 hours—blood is required for the growth of some of the test organisms. Fastidious Gram negative organisms were tested in Mueller-Hinton broth, supplemented with hemin and NAD, grown aerobically for 24 hours at 37° C., and with an innoculum of 5×10^4 CFU/well

[3] = tested on: Linezolid Resistant Streptococcus pneumoniae; test: as above; type: cell-based; settings: agar with 5% defibrinated horse blood, 48 hours
Protocol: as §1, §3

Streptococcus pneumoniae = test: as above; type: cell-based; settings: agar with 5% defibrinated horse blood, 10^4 CFU/spot, 37° C., 5% carbon dioxide, 48 hours
Protocol: as §1, §3

Haemophilus influenzae = test: MIC, fastidious Gram negative organisms in Mueller-Hinton broth; type: cell-based; settings: Mueller-Hinton broth with hemin and NAD, 24 hours, 37° C., 5×10^4 CFU/well
Protocol: as §1, §3

Moraxella catarrhalis = test: as above; type: cell-based; settings: Mueller-Hinton broth with hemin and NAD, 24 hours, 37° C., 5×10^4 CFU/well
Protocol: as §1, §3

MAO-A = target: T1, MAO-A (Homo sapiens, UniProt P21397); test: MAO-A inhibition (Ki); type: biochemical; settings: * = approximate values
T1 sequence (P21397 1-527): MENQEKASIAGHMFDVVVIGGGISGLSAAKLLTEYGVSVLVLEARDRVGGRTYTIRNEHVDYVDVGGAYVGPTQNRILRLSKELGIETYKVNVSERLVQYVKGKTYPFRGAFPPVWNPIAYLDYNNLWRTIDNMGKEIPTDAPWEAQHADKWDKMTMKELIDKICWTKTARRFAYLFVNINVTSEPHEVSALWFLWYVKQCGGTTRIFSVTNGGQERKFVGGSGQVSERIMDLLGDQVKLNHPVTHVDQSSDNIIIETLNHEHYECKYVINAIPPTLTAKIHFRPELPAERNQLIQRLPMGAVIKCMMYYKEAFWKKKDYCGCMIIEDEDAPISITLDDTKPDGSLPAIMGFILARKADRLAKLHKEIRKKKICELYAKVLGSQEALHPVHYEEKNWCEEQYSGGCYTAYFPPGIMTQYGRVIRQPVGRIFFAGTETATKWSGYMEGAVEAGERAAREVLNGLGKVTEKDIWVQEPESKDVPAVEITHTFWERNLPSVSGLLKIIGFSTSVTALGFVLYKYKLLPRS

MIC [1]: 0.5 µg/mL (≈ 1.07 µM)
MIC [2]: 0.5 µg/mL (≈ 1.07 µM)
MIC (Enterococcus faecium): 0.25 µg/mL (≈ 0.535 µM)
MIC [3]: 1 µg/mL (≈ 2.14 µM)
MIC (Streptococcus pneumoniae): 0.13 µg/mL (≈ 0.278 µM)
MIC (Haemophilus influenzae): 4 µg/mL (≈ 8.56 µM)
MIC (Moraxella catarrhalis): 0.5 µg/mL (≈ 1.07 µM)
SMILES: O=C1O[C@@H](Cn2ccnn2)CN1c1ccc(-c2ccc(C3=NOC(CO)(CO)C3)cc2)c(F)c1 [Example 2, (5R)-3-{4′-(5,5-bis(Hydroxymethyl)-4,5-dihydroisoxazol-3-yl]-2-fluoro-1,1′-biphenyl-4-yl}-5-(1H-1,2,3-triazol-1-ylmethyl)-1,3-oxazolidin-2-one]

melting point: 195 °C
SMILES: O=C1O[C@@H](Cn2ccnn2)CN1c1ccc(-c2ccc(C3=NOC(CS(=O)(=O)CCc4ccncc4)C3)nc2)c(F)c1 (stereo partly drawn) [Example 35, (5R)-3-{3-Fluoro-4-[6-(5-{[(2-pyridin-4-ylethyl)sulfonyl]methyl}-4,5-dihydroisoxazol-3-yl)pyridin-3-yl]phenyl}-5-(1H-1,2,3-triazol-1-ylmethyl)-1,3-oxazolidin-2-one]

melting point: 167 °C
SMILES: CCN(CC)CCC(=O)OC[C@@H]1CC(c2ccc(-c3ccc(N4C[C@H](Cn5ccnn5)OC4=O)cc3F)cn2)=NO1 [Example 43, [(5S)-3-(5-{2-Fluoro-4-[(5R)-2-oxo-5-(1H-1,2,3-triazol-1-ylmethyl)-1,3-oxazolidin-3-yl]phenyl}pyridin-2-yl)-4,5-dihydroisoxazol-5-yl]methyl N,N-diethyl-β-alaninate]

Ki (MAO-A): ~60 µM
SMILES: O=C1O[C@@H](Cn2ccnn2)CN1c1ccc(-c2ccc(C3=NO[C@H]([C@H](O)CO)C3)nc2)c(F)c1 [Example 51, (5R)-3-[4-(6-{(5S)-5-[(1R)-1,2-Dihydroxyethyl]-4,5-dihydroisoxazol-3-yl}pyridin-3-yl)-3-fluorophenyl]-5-(1H-1,2,3-triazol-1-ylmethyl)-1,3-oxazolidin-2-one]

Ki (MAO-A): ~35 µM
SMILES: O=C1O[C@@H](Cn2ccnn2)CN1c1ccc(-c2ccc(C3=NO[C@@H]([C@H](O)CO)C3)nc2)c(F)c1 [Example 52, (5R)-3-[4-(6-{(5R)-5-[(1R)-1,2-Dihydroxyethyl]-4,5-dihydroisoxazol-3-yl}pyridin-3-yl)-3-fluorophenyl]-5-(1H-1,2,3-triazol-ylmethyl)-1,3-oxazolidin-2-one]

Ki (MAO-A): 60 µM
SMILES: O=C1O[C@@H](Cn2ccnn2)CN1c1ccc(-c2ccc(C3=NO[C@H]([C@@H](O)CO)C3)nc2)c(F)c1 [Example 53, (5R)-3-[4-(6-{(5S)-[(1S)-1,2-Dihydroxyethyl]-4,5-dihydroisoxazol-3-yl}pyridin-3-yl)-3-fluorophenyl]-5-(1H-1,2,3-triazol-1-ylmethyl)-1,3-oxazolidin-2-one]

Ki (MAO-A): 8 µM
SMILES: O=C1O[C@@H](Cn2ccnn2)CN1c1ccc(-c2ccc(C3=NO[C@@H]([C@@H](O)CO)C3)nc2)c(F)c1 [Example 54, (5R)-3-[4-(6-{(5R)S-5-[(1S)-1,2-Dihydroxyethyl]-4,5-dihydroisoxazol-3-yl}pyridin-3-yl)-3-fluorophenyl]-5-(1H-1,2,3-triazol-1-ylmethyl)-1,3-oxazolidin-2-one]

melting point: 130 °C
SMILES: COCCC(=O)OC[C@@H](O)[C@@H]1CC(c2ccc(-c3ccc(N4C[C@H](Cn5ccnn5)OC4=O)cc3F)cn2)=NO1 [Example 56, (2R)-2-[(5S)-3-(5-{2-Fluoro-4-[(5R)-2-oxo-5-(1H-1,2,3-triazol-1-ylmethyl)-1,3-oxazolidin-3-yl]phenyl}pyridin-2-yl)-4,5-dihydroisoxazol-5-yl]-2-hydroxyethyl 3-methoxypropanoate]

melting point: 210 °C
SMILES: O=C(OC[C@@H](O)[C@@H]1CC(c2ccc(-c3ccc(N4C[C@H](Cn5ccnn5)OC4=O)cc3F)cn2)=NO1)c1cccnc1 [Example 57, (2R)-2-[(5S)-3-(5-{2-Fluoro-4-[(5R)-2-oxo-5-(1H-1,2,3-triazol-1-ylmethyl)-1,3-oxazolidin-3-yl]phenyl}pyridin-2-yl)-4,5-dihydroisoxazol-5-yl]-2-hydroxyethyl nicotinate]

melting point: 125 °C
SMILES: COCCOC(=O)OC[C@@H](O)[C@@H]1CC(c2ccc(-c3ccc(N4C[C@H](Cn5ccnn5)OC4=O)cc3F)cn2)=NO1 [Example 58, (2R)-2-[(5S)-3-(5-{2-Fluoro-4-[(5R)-2-oxo-5-(1H-1,2,3-triazol-1-ylmethyl)-1,3-oxazolidin-3-yl]phenyl}pyridin-2-yl)-4,5-dihydroisoxazol-5-yl]-2-hydroxyethyl 2-methoxyethyl carbonate]

melting point: 175 to 180 °C (dec.)
SMILES: N.N.N.N.O=C1O[C@@H](Cn2ccnn2)CN1c1ccc(-c2ccc(C3=NO[C@H]([C@@H](COP(=O)(O)O)OP(=O)(O)O)C3)nc2)c(F)c1 [Example 59, Phosphoric acid mono-(1R)-[(5R)-2-(3-{(5S)-[2-fluoro-4-(2-oxo-5-[1,2,3]triazol-1-ylmethyl-oxazolidin-3-yl)-phenyl]-pyridin-2-yl}-4,5-dihydro-isoxazol-5-yl)-2-phosphonooxy-ethyl]ester, tetrakis ammonium salt]

melting point: 162 °C
SMILES: O=C1O[C@@H](Cn2ccnn2)CN1c1ccc(-c2ccc(C3=NO[C@H](CSCCO)C3)nc2)c(F)c1 [Example 60, (5R)-3-{3-Fluoro-4-[6-((5S)-5-{[(2-hydroxyethyl)thio]methyl}-4,5-dihydroisoxazol-3-yl)pyridin-3-yl]phenyl}-5-(1H-1,2,3-triazol-1-ylmethyl)-1,3-oxazolidin-2-one]

melting point: 185 °C
SMILES: O=C1O[C@@H](Cn2ccnn2)CN1c1ccc(-c2ccc(C3=NO[C@H](COC(F)(F)F)C3)nc2)c(F)c1 [Example 61]

melting point: 199 °C
SMILES: O=C1O[C@@H](Cn2ccnn2)CN1c1ccc(-c2ccc(C3=NO[C@H](COCC(F)(F)F)C3)nc2)c(F)c1 [Example 62]

melting point: 172 °C
SMILES: COC[C@@H]1CC(c2ccc(-c3ccc(N4C[C@H](Cn5ccnn5)OC4=O)cc3F)cn2)=NO1 [Example 64, (5R)-3-(3-Fluoro-4-{6-[(5S)-5-(methoxymethyl)-4,5-dihydroisoxazol-3-yl]pyridin-3-yl}phenyl)-5-(1H-1,2,3-triazol-1-ylmethyl)-1,3-oxazolidin-2-one]
